From US20030190344A1, “Animal feed or feed additive as performance enhancer or appetite enhancer for live stock” (priority 2000, published 2003)

Test system: aromatic aminoacid-decarboxylase
Assay: Blockade of aromatic aminoacid-decarboxylase activity
Format: biochemical
Source text: This blockade of the aromatic aminoacid-decarboxylase is irreversible and thus is of special interest since it is maintained as long as the enzyme molecules are in the effective range of the benzophenanthridine alkaloids. Sanguinarine and chelerythrine, representative of the benzophenanthridine alkaloids, have an aromatic structure which is similar to that of the aromatic amino acids. The enzyme “aromatic aminoacid-decarboxylase” confuses the ultimate structure of the benzophenanthridine alkaloid with the ring structure of the aromatic amino acid and fits it rather than the amino acids at its active center.

COc1ccc2c(c[n+](C)c3c4cc5c(cc4ccc23)OCO5)c1OC [chelerythrine]
block the activity of the aromatic aminoacid-decarboxylase: 92% | reversibility of blockade of the aromatic aminoacid-decarboxylase: irreversible
